Data from patent publication US9051248B2, “Methods, compounds, and compositions for delivering 1,3-propanedisulfonic acid” (BHI Limited Partnership, priority 2009, dated 2015).
Like-named read-outs stand apart in the source and are kept apart here. Values belong to the molecule of their own block, whether it stands above or below them.

Key:
[1] = PK study in rats (1,3PDS plasma AUC after oral administration of prodrugs); settings: rat plasma, oral gavage, dose molar equivalent to 100 mg/kg 1,3PDS(2Na)
[2] = Human whole blood stability; type: in vitro ADME; settings: fresh human whole blood, 37° C.; for Conversion to 1,3PDS (% by molar ratio) 0 h: about 100 μg/mL
Method: The objective of this test was to determine the stability of the prodrugs in fresh human whole blood at different time-points (0, 0.5, 1, 4, 24 hours). Blood samples were incubated in a shaking water bath at 37° C. for up to 24 hours. The compound (prodrug) was added at Time-point 0, and sample aliquots were withdrawn and analyzed at each time point to determine the concentration of 1,3PDS. If possible, the loss of compound was determined by the amounts of compound determined at each time point compared to the amount determined at Time-point 0. To eliminate the conversion due to the matrix, a special Time-point 0 was prepared in pre-extracted blood sample.
Approximately 2.5 mL of whole blood was incubated in a gently shaking water bath at 37° C. for 15 minutes. Two (2) mL of the pre-incubated whole blood were aliquoted in an eppendorf tube. A 100 μL aliquot of blood was removed and 100 μL of the compound Stock Solution was added. The solution was mixed by inversion. This sample was referred to as Tube A. The final concentration of the compound in tube A was approximately at 100 μg/mL. Immediately after mixing, 100 μL of Tube A was aliquotted into 3 different eppendorf tubes. These samples were extracted as described in the “Extraction Procedure” Section. These samples were referred to Time-point 0. Thereafter, the incubation of Tube A was continued in the shaking water bath at 37° C. for 0.5, 1, 4 and 24 hours. At each specific time point of incubation, aliquots (triplicate) of 100 μL were removed and extracted as described in the “Extraction Procedure” Section. To avoid potential further degradation of compound and/or possible degradation products, the aliquot extracts were kept on ice until analysis. After extraction, samples were analyzed using LC-MS/MS method.
A volume of 300 μL of cold-ice acetonitrile was added to a 1.5 mL eppendorf tube and kept on ice until utilization. 100 μL of the sample to be extracted was added and the mix was vortexed (acetonitrile and blood). The sample was centrifuged at 16250×g (13200 rpm on IEC centrifuge with eppendorf rotor) for 5 minutes. A volume of 250 μL of the supernatant was transferred to another tube and evaporated to dryness under a nitrogen stream. The residue was reconstituted with the mobile phase. This sample was then analyzed according to 1,3PDS specific methods.
The concentrations of 1,3PDS were calculated based on the nominal concentration of the calibration standards and their respective peak area ratio. A linear regression using a weight of 1/x^2 is used to derive the concentration of 1,3PDS. The % appearance of 1,3PDS was determined by the amounts of compound determined at each time point compared to nominal concentration (100%) of 1,3PDS generated by 100% of the prodrug (equivalent concentration).

[3] = Water stability (conversion of prodrug to 1,3PDS); type: physicochemical; settings: deionized water; for Conversion to 1,3PDS (%) 1 h / Conversion to 1,3PDS (%) 2 h: 37° C.; for Conversion to 1,3PDS (%) 0 h / Conversion to 1,3PDS (%) 24 h: room temperature; for Conversion to 1,3PDS (%) 0 h: 200 μg/mL
Method: (§1) The objective of this test was to determine the stability of the prodrugs in simulated gastric fluid (SGF) and water at 37° C. up to 2 hours and in water at room temperature up to 24 hours.
(§2) Simulated gastric fluid and water samples were incubated in a shaking water bath at 37° C. for up to 2 hours. The compound (prodrug) was added at Time-point 0. At each selected time point (refer to table), sample aliquots were withdrawn and analyzed to determine the concentration of 1,3-propanedisulfonic acid (1,3PDS). The concentrations of 1,3PDS were calculated based on their respective peak area. The % appearance of 1,3PDS was determined by the amounts of compound determined at each time point compared to nominal concentration (100%) of 1,3PDS generated by 100% of the prodrug (equivalent concentration).
A fresh stock solution at approximately 2 mg/mL of the compound was prepared. One stability solution at 200 μg/mL in the SGF was prepared (sample referred to as Tube A). A stability solution at 200 μg/mL in deionized water was prepared (sample referred to as Tube B). Immediately after preparation, each 200 μg/mL solution was diluted in triplicates to 20 μg/mL in deionized water and analyzed using LC-MS/MS method (Time-point 0). Thereafter, the incubation of tubes A and B was continued in the shaking water bath at 37° C. for 1 and 2 hours while one aliquot of tube B was kept at room temperature for 24 hours. At each specific time point of incubation, 3 aliquots (triplicate) of 50 μL were removed, diluted in 450 μL of water and analyzed using LC-MS/MS method. In parallel, 3 reference samples of 1,3PDS at 100, 10 and 1 μg/mL were prepared, diluted in triplicate in water and injected at the beginning and at the end of the batch. These samples were considered as reference samples.
(§3) The concentrations of 1,3PDS were calculated based on response of the reference samples and their respective peak area response. The % appearance of 1,3PDS was determined by the amounts of compound determined at each time point compared to expected nominal concentration (100%) of 1,3PDS generated by 100% of the prodrug (equivalent concentration).

[4] = Simulated gastric fluid (SGF) stability; type: in vitro ADME; settings: SGF pH 1.5 with pepsin, 37° C.
Method: as §1, §2
Amounts of 0.2 g of sodium chloride and 0.32 g of pepsin were weighted and transferred into a 100-mL volumetric flask. Approximately 50 mL of deionized water was added and the mixture well mixed. A volume of 700 μL of hydrochloric acid was added, and the volume completed to 100 mL with deionized water. The resulting mixture was transferred in a polypropylene bottle and pH measured (pH=1.5).
A fresh stock solution at approximately 2 mg/mL of the compound was prepared. One stability solution at 200 μg/mL in the SGF was prepared (sample referred to as Tube A). […] Immediately after preparation, each 200 μg/mL solution was diluted in triplicates to 20 μg/mL in deionized water and analyzed using LC-MS/MS method (Time-point 0). […] At each specific time point of incubation, 3 aliquots (triplicate) of 50 μL were removed, diluted in 450 μL of water and analyzed using LC-MS/MS method. […]
as §3

[5] = rat, in vivo, po, 100 mg/kg
[6] = vehicle 2 0.5% Methocel in water

Structure (SMILES): COC(=O)c1ccccc1OS(=O)(=O)CCCS(=O)(=O)O [A32(Na)]
- 1,3PDS AUC0-Tlast ([1]; vehicle 1 water): 1097 ng·h/mL
- Conversion to 1,3PDS (% by molar ratio) 0.5 h ([2]; 0.5 h): 0.1 % by molar ratio
- Conversion to 1,3PDS (% by molar ratio) 1 h ([2]; 1 h): 0.2 % by molar ratio
- Conversion to 1,3PDS (% by molar ratio) 4 h ([2]; 4 h): 0.4 % by molar ratio
- Conversion to 1,3PDS (% by molar ratio) 24 h ([2]; 24 h): 2.0 % by molar ratio
- Conversion to 1,3PDS (% by molar ratio) 0 h [2]: 0.1 % by molar ratio
- Conversion to 1,3PDS (%) 1 h [3]: 0.1%
- Conversion to 1,3PDS (%) 2 h [3]: 0.1%
- Conversion to 1,3PDS (%) 0 h [3]: 0.0%
- Conversion to 1,3PDS (%) 24 h [3]: 0.0%
- Conversion to 1,3PDS (%) 0 h ([4]; 0 h): 0.0%
- Conversion to 1,3PDS (%) 1 h ([4]; 1 h): 0.0%
- Conversion to 1,3PDS (%) 2 h ([4]; 2 h): 0.0%

Structure (SMILES): CC(C)(C)C(C#N)OS(=O)(=O)CCCS(=O)(=O)OC(C#N)C(C)(C)C (stereo not drawn) [Compound B84]
- 1,3PDS AUC0-Tlast ([5]; male, Sprague-Dawley): 2953 ng·h/mL

Structure (SMILES): CC(C)(COS(=O)(=O)CCCS(=O)(=O)OCC(C)(C)[N+](=O)[O-])[N+](=O)[O-] [Compound B72]
- 1,3PDS AUC0-Tlast [5]: BLLQ

Structure (SMILES): CCOP(=O)(OCC)OCC(C)(C)COS(=O)(=O)CCCS(=O)(=O)[O-].[Na+] [A66(Na)]
- 1,3PDS AUC0-Tlast [1, 6]: BLLQ

Now from value to molecule:

- 1,3PDS AUC0-Tlast [1, 6]: BLLQ
Structure (SMILES): CC(CO)(CO)COS(=O)(=O)CCCS(=O)(=O)O [A68(Na)]

- 1,3PDS AUC0-Tlast [1, 6]: BLLQ
Structure (SMILES): CC(C)(C#N)COS(=O)(=O)CCCS(=O)(=O)OCC(C)(C)C#N [Compound B71]

- Conversion to 1,3PDS (% by molar ratio) 0 h [2]: BLLQ
- Conversion to 1,3PDS (%) 1 h [3]: 0.0%
- Conversion to 1,3PDS (%) 2 h [3]: 0.0%
- Conversion to 1,3PDS (%) 0 h [3]: 0.0%
- Conversion to 1,3PDS (%) 24 h [3]: 0.0%
Structure (SMILES): CC(C)(COS(=O)(=O)CCCS(=O)(=O)OCC(C)(C)C(=O)OCc1ccccc1)C(=O)OCc1ccccc1 [Compound B30]

- 1,3PDS AUC0-Tlast [1, 6]: BLLQ
Structure (SMILES): O=S(O)CCCS(=O)O [P1(2Na)]
